Results: patent US20240366770A1, “DEGRADATION OF BRUTON'S TYROSINE KINASE (BTK) BY CONJUGATION OF BTK INHIBITORS WITH E3 LIGASE LIGAND AND METHODS OF USE” (BeiGene Switzerland GmbH, priority 2021, published 2024)
Where two headings read alike, the source gives them in different places.

What was measured:
HEK-293 cells = assay: HEK-293 cytotoxicity detection (CellTiter-Glo); format: cell-based
How it was run: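 HEK-293 cells exposed 72 h to an 8-point, 4-fold dilution series (top 500× stock 5 mM in DMSO; 0.2% DMSO final). Viability by CellTiter-Glo luminescence after 10 min at room temperature; IC50 from four-parameter Hill fit of percent inhibition.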

BTK = target: T1, BTK (Homo sapiens, UniProt Q06187); assay: BTK degradation in TMD-8 cells (HTRF assay); format: cell-based; details: 6 h treatment, IC50 (DC50) of BTK degradation
T1 construct: High control=Cell group with added DMSO and without compound, indicating microplate readings without BTK degradation; endogenous in cells; host or cells: TMD-8
T1 sequence (Q06187 whole entry): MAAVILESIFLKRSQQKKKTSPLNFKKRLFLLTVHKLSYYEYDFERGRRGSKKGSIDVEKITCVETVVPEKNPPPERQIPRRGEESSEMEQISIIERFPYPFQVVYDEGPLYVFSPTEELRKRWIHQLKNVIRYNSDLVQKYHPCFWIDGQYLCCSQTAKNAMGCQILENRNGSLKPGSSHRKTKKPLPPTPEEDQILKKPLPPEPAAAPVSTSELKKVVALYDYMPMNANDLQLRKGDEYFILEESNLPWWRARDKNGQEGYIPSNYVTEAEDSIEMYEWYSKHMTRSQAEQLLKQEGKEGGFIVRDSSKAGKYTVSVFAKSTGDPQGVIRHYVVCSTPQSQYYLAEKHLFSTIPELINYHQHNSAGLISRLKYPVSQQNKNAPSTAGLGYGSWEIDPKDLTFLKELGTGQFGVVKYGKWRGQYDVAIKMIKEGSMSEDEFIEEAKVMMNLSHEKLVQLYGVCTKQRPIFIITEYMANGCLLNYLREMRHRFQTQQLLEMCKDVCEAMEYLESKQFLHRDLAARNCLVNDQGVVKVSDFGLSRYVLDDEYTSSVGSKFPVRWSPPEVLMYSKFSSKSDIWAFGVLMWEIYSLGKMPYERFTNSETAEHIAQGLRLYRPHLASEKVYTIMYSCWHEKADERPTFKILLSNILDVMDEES
How it was run: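 TMD-8 cells were exposed for 6 h to 8 compound doses (6-fold serial dilution, 0.2% DMSO). Lysed cells were incubated overnight at room temperature with HTRF antibodies and read at 665/620 nm. DC50 came from four-parameter fitting of % inhibition versus concentration.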

[1] = Homo sapiens, HEK-293 cells, 72 h incubation, CellTiter-Glo luminescence, IC50 of cell proliferation inhibition, read-out: HEK293

Compound | IC50 (HEK-293 cells; [1]) [nM] | DC50 (BTK) [nM] | IC50 (HEK-293 cells; Homo sapiens, HEK293, 72 h, read-out: HEK293 (nM)) [nM] | IC50 (HEK-293 cells; HEK-293 cells, 72 h incubation, CellTiter-Glo luminescence, IC50 of cell proliferation inhibition, read-out: HEK293) [nM]
Cc1cc(-c2ncnc3[nH]c4cc(N5CCN(CC6CCN(c7ccc(N8CCC(=O)NC8=O)c(C)c7)CC6)CC5)ccc4c23)ccc1[C@@H](C)NC(=O)c1noc(C(C)(C)C)n1 [Example 22, (R)-5-(tert-butyl)-N-(1-(4-(7-(4-((1-(4-(2,4-dioxotetrahydropyrimidin-1(2H)-yl)-3-methylphenyl)piperidin-4-yl)methyl)piperazin-1-yl)-9H-pyrimido[4,5-b]indol-4-yl)-2-methylphenyl)ethyl)-1,2,4-oxadiazole-3-carboxamide] | > 10000 | 0.211 |  | 
Cc1cc(-c2ncnc3[nH]c4cc(N5CCN(CCc6ccc7c(c6)C6(CC6)C(=O)N7C6CCC(=O)NC6=O)CC5)ccc4c23)ccc1[C@@H](C)NC(=O)c1nc(C2(C)CC2)no1 (stereo partly drawn) [Example 123, N-((1R)-1-(4-(7-(4-(2-(1′-(2,6-dioxopiperidin-3-yl)-2′-oxospiro[cyclopropane-1,3′-indolin]-5′-yl)ethyl)piperazin-1-yl)-9H-pyrimido[4,5-b]indol-4-yl)-2-methylphenyl)ethyl)-3-(1-methylcyclopropyl)-1,2,4-oxadiazole-5-carboxamide] |  | 0.192 | > 10000 | 
COc1cc2c(cc1N1CCN(CC3CCN(c4ccc(N5CCC(=O)NC5=O)cc4)CC3)CC1)[nH]c1ncnc(-c3ccc([C@@H](C)NC(=O)c4noc(C(C)(C)C)n4)c(C)c3F)c12 [Example 58, (R)-5-(tert-butyl)-N-(1-(4-(7-(4-((1-(4-(2,4-dioxotetrahydropyrimidin-1(2H)-yl)phenyl)piperidin-4-yl)methyl)piperazin-1-yl)-6-methoxy-9H-pyrimido[4,5-b]indol-4-yl)-3-fluoro-2-methylphenyl)ethyl)-1,2,4-oxadiazole-3-carboxamide] | > 10000 | 1.87 |  | 
Cc1cc(-c2ncnc3[nH]c4cc(N5CCN(C6CC(c7ccc(N8CCC(=O)NC8=O)cc7)C6)CC5)ccc4c23)ccc1[C@@H](C)NC(=O)c1nc(C2(C)CC2)no1 (stereo partly drawn) [Example 125, (R)—N-(1-(4-(7-(4-(3-(4-(2,4-dioxotetrahydropyrimidin-1(2H)-yl)phenyl)cyclobutyl)piperazin-1-yl)-9H-pyrimido[4,5-b]indol-4-yl)-2-methylphenyl)ethyl)-3-(1-methylcyclopropyl)-1,2,4-oxadiazole-5-carboxamide] | > 10000 | 0.197 |  | 
COc1cc2c(cc1N1CCN(CC3CCN(c4ccc(N5CCC(=O)NC5=O)cc4)CC3)CC1)[nH]c1ncnc(-c3ccc([C@@H](C)NC(=O)c4nc(C(C)(C)C)no4)c(C)c3)c12 [Example 46, (R)-3-(tert-butyl)-N-(1-(4-(7-(4-((1-(4-(2,4-dioxotetrahydropyrimidin-1(2H)-yl)phenyl)piperidin-4-yl)methyl)piperazin-1-yl)-6-methoxy-9H-pyrimido[4,5-b]indol-4-yl)-2-methylphenyl)ethyl)-1,2,4-oxadiazole-5-carboxamide] | > 10000 | 0.366 |  | 
Cc1cc(-c2ncnc3[nH]c4cc(N5CCN([C@H]6C[C@H](c7ccc(N[C@H]8CCC(=O)NC8=O)cc7)C6)CC5)ccc4c23)ccc1[C@@H](C)NC(=O)c1nc(C2(C)CC2)no1 [Example 119, N—((R)-1-(4-(7-(4-((1S,3r)-3-(4-(((S)-2,6-dioxopiperidin-3-yl)amino)phenyl)cyclobutyl)piperazin-1-yl)-9H-pyrimido[4,5-b]indol-4-yl)-2-methylphenyl)ethyl)-3-(1-methylcyclopropyl)-1,2,4-oxadiazole-5-carboxamide] | > 10000 | 2.51 |  | 
Cc1cc(-c2ncnc3[nH]c4cc(CN5CCN(CC6CCN(c7ccc(N8CCC(=O)NC8=O)cc7)CC6)CC5)ccc4c23)ccc1[C@@H](C)NC(=O)c1nc(C(C)(C)C)no1 [Example 104, (R)-3-(tert-butyl)-N-(1-(4-(7-((4-((1-(4-(2,4-dioxotetrahydropyrimidin-1(2H)-yl)phenyl)piperidin-4-yl)methyl)piperazin-1-yl)methyl)-9H-pyrimido[4,5-b]indol-4-yl)-2-methylphenyl)ethyl)-1,2,4-oxadiazole-5-carboxamide] | > 10000 | 1.16 |  | 
Cc1cc(-c2ncnc3[nH]c4cc(N5CCN([C@H]6C[C@H](c7ccc(NC8CCC(=O)NC8=O)cc7)C6)CC5)ccc4c23)ccc1[C@@H](C)NC(=O)c1nc(C2(C)CC2)no1 (stereo partly drawn) [Example 116, N-((1R)-1-(4-(7-(4-((1r,3r)-3-(4-((2,6-dioxopiperidin-3-yl)amino)phenyl)cyclobutyl)piperazin-1-yl)-9H-pyrimido[4,5-b]indol-4-yl)-2-methylphenyl)ethyl)-3-(1-methylcyclopropyl)-1,2,4-oxadiazole-5-carboxamide] | > 10000 | 0.509 |  | 
Cc1cc(-c2ncnc3[nH]c4cc(N5CCC6(CC5)CCN(C5CC(c7ccc(N[C@H]8CCC(=O)NC8=O)cc7)C5)CC6)ccc4c23)ccc1[C@@H](C)NC(=O)c1nc(C(C)(C)C)no1 (stereo partly drawn) [Example 108, 3-(tert-butyl)-N-((1R)-1-(4-(7-(9-((1s,3s)-3-(4-((2,6-dioxopiperidin-3-yl)amino)phenyl)cyclobutyl)-3,9-diazaspiro[5.5]undecan-3-yl)-9H-pyrimido[4,5-b]indol-4-yl)-2-methylphenyl)ethyl)-1,2,4-oxadiazole-5-carboxamide] |  | 2.64 |  | 949
Cc1cc(-c2ncnc3[nH]c4ccc(N5CCN(CC6CCN(c7ccc(N8CCC(=O)NC8=O)cc7)CC6)CC5)cc4c23)ccc1CNC(=O)c1nc(C(C)(C)C)no1 [Example 1, 3-(tert-butyl)-N-(4-(6-(4-((1-(4-(2,4-dioxotetrahydropyrimidin-1(2H)-yl)phenyl)piperidin-4-yl)methyl)piperazin-1-yl)-9H-pyrimido[4,5-b]indol-4-yl)-2-methylbenzyl)-1,2,4-oxadiazole-5-carboxamide] | > 10000 | 4.94 |  | 
Cc1cc(-c2ncnc3[nH]c4cc(N5CCN(CC6CCN(c7ccc(N8CCC(=O)NC8=O)cc7)CC6)CC5)c(C)cc4c23)c(F)cc1[C@@H](C)NC(=O)c1noc(C(C)(C)C)n1 [Example 44, (R)-5-(tert-butyl)-N-(1-(4-(7-(4-((1-(4-(2,4-dioxotetrahydropyrimidin-1(2H)-yl)phenyl)piperidin-4-yl)methyl)piperazin-1-yl)-6-methyl-9H-pyrimido[4,5-b]indol-4-yl)-5-fluoro-2-methylphenyl)ethyl)-1,2,4-oxadiazole-3-carboxamide] | > 10000 | 1.38 |  | 
Cc1cc(-c2ncnc3[nH]c4cc(N5CCN(CC6CN(c7ccc(N8CCC(=O)NC8=O)cc7)C6)CC5)ccc4c23)ccc1[C@@H](C)NC(=O)c1nc(C2(C)CC2)no1 [Example 126, (R)—N-(1-(4-(7-(4-((1-(4-(2,4-dioxotetrahydropyrimidin-1(2H)-yl)phenyl)azetidin-3-yl)methyl)piperazin-1-yl)-9H-pyrimido[4,5-b]indol-4-yl)-2-methylphenyl)ethyl)-3-(1-methylcyclopropyl)-1,2,4-oxadiazole-5-carboxamide] | > 10000 | 0.449 |  | 
Cc1c([C@@H](C)NC(=O)c2noc(C(C)(C)C)n2)ccc(-c2ncnc3[nH]c4cc(N5CCN(C6CC(c7ccc(N8CCC(=O)NC8=O)cc7)C6)CC5)ccc4c23)c1F (stereo partly drawn) [Example 33, (R)-5-(tert-butyl)-N-(1-(4-(7-(4-(3-(4-(2,4-dioxotetrahydropyrimidin-1(2H)-yl)phenyl)cyclobutyl)piperazin-1-yl)-9H-pyrimido[4,5-b]indol-4-yl)-3-fluoro-2-methylphenyl)ethyl)-1,2,4-oxadiazole-3-carboxamide] | > 10000 | 3.67 |  | 
Cc1c([C@@H](C)NC(=O)c2noc(C(C)(C)C)n2)ccc(-c2ncnc3[nH]c4cc(N5CCN(C6CCN(c7cccc(C8CCC(=O)NC8=O)c7)CC6)CC5)ccc4c23)c1F (stereo partly drawn) [Example 34, 5-(tert-butyl)-N-((1R)-1-(4-(7-(4-(1-(3-(2,6-dioxopiperidin-3-yl)phenyl)piperidin-4-yl)piperazin-1-yl)-9H-pyrimido[4,5-b]indol-4-yl)-3-fluoro-2-methylphenyl)ethyl)-1,2,4-oxadiazole-3-carboxamide] | 1440 | 1.23 |  | 
Cc1cc(-c2ncnc3[nH]c4cc(C5CCN(CC6CCN(c7ccc(N8CCC(=O)NC8=O)cc7)CC6)CC5)cnc4c23)ccc1[C@@H](C)NC(=O)c1nc(C(C)(C)C)no1 [Example 38, (R)-3-(tert-butyl)-N-(1-(4-(7-(1-((1-(4-(2,4-dioxotetrahydropyrimidin-1(2H)-yl)phenyl)piperidin-4-yl)methyl)piperidin-4-yl)-9H-pyrido[2′,3′:4,5]pyrrolo[2,3-d]pyrimidin-4-yl)-2-methylphenyl)ethyl)-1,2,4-oxadiazole-5-carboxamide] | 3460 | 0.395 |  | 
Cc1cc(-c2ncnc3[nH]c4cc(C5CCN(CC6CCN(c7ccc(N8CCC(=O)NC8=O)cc7)CC6)CC5)ccc4c23)ccc1CNC(=O)c1nc(C(C)(C)C)no1 [Example 4, 3-(tert-butyl)-N-(4-(7-(1-((1-(4-(2,4-dioxotetrahydropyrimidin-1(2H)-yl)phenyl)piperidin-4-yl)methyl)piperidin-4-yl)-9H-pyrimido[4,5-b]indol-4-yl)-2-methylbenzyl)-1,2,4-oxadiazole-5-carboxamide] | 3660 | 0.294 |  | 
